In patent publication US12150929B2, “Compositions and methods for the treatment of depression” (Janssen Pharmaceuticals, Inc., priority 2021, dated 2024):
Where two headings read alike, the source gives them in different places.

Key:
[1] = Maximum plasma concentration (Cmax) of aticaprant, Example 1; type: in vivo; conditions: human, oral, 10 mg, eITT, read-out: Cmax, Arithmetic Mean (SD)
Method: Aticaprant was supplied as 5-mg capsules. Placebo was supplied as matching capsules. All subjects took 2 capsules QD. The capsules were taken daily from Day 2 to Day 78 in fasting condition with some water (fasting for at least 4 hours before dosing). Medication was taken before breakfast. If the subject has forgotten to take the medication before breakfast, this was done before the next following meal, at the latest at dinner of the same day. If the subject remembered later than dinner, the dose of that day was omitted, and the subject took the dose before breakfast on the next day.
Cmax is defined as maximum plasma concentration of aticaprant. […] Here ‘N’ (number of subjects analyzed) includes the number of subjects evaluable for this endpoint. Here ‘n’ (number analyzed) included all subjects evaluable for specified time point categories.

[2] = Weight change, Example 1; type: in vivo, human
Method: Treatment with aticaprant as described herein has several advantages over the treatments in the art. […] As used herein, the term “weight gain” refers to an increase in the weight of patient, relative to the weight of the patient before taking aticaprant or the weight of the patient that is assessed at the time of the initial administration of the aticaprant. In certain embodiments, the patient may actually see a decrease in overall weight, relative to the weight of the patient before taking aticaprant.
At the lead-in baseline timepoint, the mean weight for subjects in the placebo group was 76.17 kg compared to 78.66 in the aticaprant group. After 6 weeks in the double-blind treatment phase, the mean weight in the placebo group was 75.75 kg compared to 78.57 kg in the aticaprant group. […] This is unexpected because other adjunctive treatments for MDD result in a mean weight increase. See, Thase M, et al. J Clin Psych. 2015: 76(9), 1224-1231; Thase, J Clin Psych. 2015, 76(9): 1232-1240; El Khalili, Int J Neuropsychopharmacol. 2010, 13, 917-932; Marcus, J. Clin. Psychopharmacol. […] Nashville, Tenn, ACNP, 2008; Earley, American College of Neuropsychopharmacology, 2007, Annual Meeting Abstracts (Boca Raton, Fla, Dec. 9-13, 2007). Nashville, TN, ACNP, 2007). See, Table 29.

- Cmax ([1]; Week 1 (n = 56)): 32.7 ± 10.9 ng/mL
- Cmax ([1]; Week 3 (n = 56)): 33.5 ± 11.1 ng/mL
- Cmax ([1]; Week 6 (n = 56)): 34.3 ± 11.1 ng/mL
- Mean weight, Lead-in Baseline, mean (SE) ([2]; Lead-in Baseline, n = 85): 78.66 (1.65) kg
- Mean weight, Screening, mean (SE) ([2]; Screening, n = 85): 78.42 (1.65) kg
- Mean weight, Withdrawal Baseline, mean (SE) ([2]; Withdrawal Baseline (after 6 weeks double-blind treatment), n = 85): 78.57 (1.71) kg
- Mean weight, Relative % Change ([2]; Withdrawal vs Lead-in, n = 85): −0.11%
- mean weight ([2]; after 6 weeks in the double-blind treatment phase): 78.57 kg
- weight over the 6-week double blind treatment period ([2]; both groups): remained relatively stable
- mean weight ([2]; lead-in baseline timepoint): 78.66 kg
- Mean weight, Absolute Change (Withdrawal − Lead-in) ([2]; n = 85): -0.09 kg
SMILES: Cc1cc(C)cc(C2CCCN2Cc2ccc(Oc3ccc(C(N)=O)cc3F)cc2)c1 (centres unmarked) [aticaprant, 3-fluoro-4-4-2-(3,5-dimethylphenyl)pyrrolidin-1-yl-methylphenoxybenzamide]
